According to ChEMBL document CHEMBL4130404, “Lamellodysidines A and B, Sesquiterpenes Isolated from the Marine Sponge Lamellodysidea herbacea” (J Nat Prod, 2017):
Active and inactive are the calls of the source.

Assays:
[1] = species on record: Homo sapiens; experiment: Inhibition of ubiquitin/proteasome (unknown origin)
[2] = biological target: T1, Ubiquitin-like modifier-activating enzyme 1 (Homo sapiens) (UniProt P22314); experiment: Inhibition of ubiquitin/ubiquitin-activating enzyme E1 (unknown origin)
T1 sequence (whole entry): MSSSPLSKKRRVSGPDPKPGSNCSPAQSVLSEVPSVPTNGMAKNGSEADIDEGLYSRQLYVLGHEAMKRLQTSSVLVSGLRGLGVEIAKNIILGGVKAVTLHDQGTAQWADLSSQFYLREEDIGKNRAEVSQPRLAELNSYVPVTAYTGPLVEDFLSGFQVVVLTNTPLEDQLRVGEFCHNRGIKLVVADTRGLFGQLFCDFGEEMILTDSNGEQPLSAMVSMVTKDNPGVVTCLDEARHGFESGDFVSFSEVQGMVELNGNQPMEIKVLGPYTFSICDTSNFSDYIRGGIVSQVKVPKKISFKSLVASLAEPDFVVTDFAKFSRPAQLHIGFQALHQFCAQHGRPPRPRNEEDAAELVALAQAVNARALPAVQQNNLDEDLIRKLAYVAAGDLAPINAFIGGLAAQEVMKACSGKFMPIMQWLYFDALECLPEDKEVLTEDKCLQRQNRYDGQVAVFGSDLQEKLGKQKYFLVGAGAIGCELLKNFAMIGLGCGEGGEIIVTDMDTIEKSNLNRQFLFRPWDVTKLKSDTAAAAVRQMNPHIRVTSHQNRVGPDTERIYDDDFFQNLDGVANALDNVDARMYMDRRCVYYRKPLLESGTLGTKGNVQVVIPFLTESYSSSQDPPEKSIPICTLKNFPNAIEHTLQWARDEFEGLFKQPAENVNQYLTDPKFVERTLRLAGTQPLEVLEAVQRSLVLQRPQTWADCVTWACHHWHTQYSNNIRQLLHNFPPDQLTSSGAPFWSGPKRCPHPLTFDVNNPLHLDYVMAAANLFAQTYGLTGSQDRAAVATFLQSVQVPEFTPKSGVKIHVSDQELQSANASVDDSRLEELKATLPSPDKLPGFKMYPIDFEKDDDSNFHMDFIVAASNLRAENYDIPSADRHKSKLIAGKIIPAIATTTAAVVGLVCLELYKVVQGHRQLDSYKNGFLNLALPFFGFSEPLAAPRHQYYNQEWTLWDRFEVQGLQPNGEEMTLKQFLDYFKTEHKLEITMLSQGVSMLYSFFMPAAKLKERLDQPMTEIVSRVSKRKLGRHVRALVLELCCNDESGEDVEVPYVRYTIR

[3] = species on record: Homo sapiens; experiment: Inhibition of ubiquitin/Ubc13/Uev1A (unknown origin)
[4] = test system: Macrophage; experiment: Inhibition of cholesterol ester accumulation in macrophages (unknown origin); type: functional, cell-based
[5] = biological target: Ubiquitin carboxyl-terminal hydrolase 7 (Homo sapiens) (UniProt Q93009); experiment: Inhibition of ubiquitin/USP7 (unknown origin)
[6] = test system: Macrophage; experiment: Inhibition of RANKL-induced formation of multinuclear osteoclasts in macrophages (unknown origin); type: functional, cell-based
[7] = biological target: Tumour suppressor p53/oncoprotein Mdm2 (Homo sapiens) (UniProt P04637+Q00987); experiment: Inhibition of ubiquitin/p53/Mdm2 (unknown origin); type: protein assay

Measured: inhibition

Ubiquitin carboxyl-terminal hydrolase 7 (Homo sapiens), sequence (Q93009 whole entry, looked up): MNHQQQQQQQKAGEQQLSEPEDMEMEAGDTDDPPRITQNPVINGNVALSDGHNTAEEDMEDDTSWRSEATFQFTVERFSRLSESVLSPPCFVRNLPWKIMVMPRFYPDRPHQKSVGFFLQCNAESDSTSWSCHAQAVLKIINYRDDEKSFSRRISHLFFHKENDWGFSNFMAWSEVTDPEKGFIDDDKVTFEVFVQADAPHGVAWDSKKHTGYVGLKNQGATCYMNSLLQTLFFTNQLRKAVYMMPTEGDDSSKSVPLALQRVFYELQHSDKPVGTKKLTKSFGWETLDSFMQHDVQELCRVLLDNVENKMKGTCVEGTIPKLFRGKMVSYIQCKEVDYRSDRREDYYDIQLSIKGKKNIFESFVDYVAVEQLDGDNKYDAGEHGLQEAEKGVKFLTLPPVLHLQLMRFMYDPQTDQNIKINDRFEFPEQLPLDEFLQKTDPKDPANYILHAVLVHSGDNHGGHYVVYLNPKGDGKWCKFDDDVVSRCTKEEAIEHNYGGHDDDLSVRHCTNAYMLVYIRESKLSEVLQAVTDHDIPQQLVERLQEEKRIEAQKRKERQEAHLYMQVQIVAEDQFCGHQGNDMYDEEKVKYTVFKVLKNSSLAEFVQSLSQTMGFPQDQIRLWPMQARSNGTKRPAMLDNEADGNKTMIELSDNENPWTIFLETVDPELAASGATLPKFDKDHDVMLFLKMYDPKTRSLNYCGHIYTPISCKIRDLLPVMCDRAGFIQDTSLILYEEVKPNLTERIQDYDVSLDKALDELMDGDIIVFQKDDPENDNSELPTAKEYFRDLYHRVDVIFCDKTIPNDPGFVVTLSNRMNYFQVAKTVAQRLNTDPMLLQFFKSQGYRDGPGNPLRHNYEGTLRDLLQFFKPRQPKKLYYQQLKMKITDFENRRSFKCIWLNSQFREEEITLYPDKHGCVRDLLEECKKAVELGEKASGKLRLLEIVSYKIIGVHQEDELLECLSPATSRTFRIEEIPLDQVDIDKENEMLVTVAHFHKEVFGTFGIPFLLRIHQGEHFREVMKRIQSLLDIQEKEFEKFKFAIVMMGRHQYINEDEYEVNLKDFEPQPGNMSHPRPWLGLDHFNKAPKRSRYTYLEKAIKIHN
Tumour suppressor p53/oncoprotein Mdm2 (Homo sapiens), sequence (P04637 whole entry, looked up): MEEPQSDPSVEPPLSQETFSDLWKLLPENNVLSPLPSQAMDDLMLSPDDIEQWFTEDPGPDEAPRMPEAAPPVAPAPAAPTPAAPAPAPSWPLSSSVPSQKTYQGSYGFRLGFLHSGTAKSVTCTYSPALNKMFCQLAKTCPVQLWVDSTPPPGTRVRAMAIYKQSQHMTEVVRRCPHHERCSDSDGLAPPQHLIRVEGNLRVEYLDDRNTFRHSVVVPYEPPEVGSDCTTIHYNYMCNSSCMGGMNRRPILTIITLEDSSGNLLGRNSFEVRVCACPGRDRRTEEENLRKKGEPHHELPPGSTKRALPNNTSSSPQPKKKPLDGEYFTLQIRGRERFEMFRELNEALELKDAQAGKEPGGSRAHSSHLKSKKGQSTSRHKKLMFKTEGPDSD
Tumour suppressor p53/oncoprotein Mdm2 (Homo sapiens), sequence (Q00987 whole entry, looked up): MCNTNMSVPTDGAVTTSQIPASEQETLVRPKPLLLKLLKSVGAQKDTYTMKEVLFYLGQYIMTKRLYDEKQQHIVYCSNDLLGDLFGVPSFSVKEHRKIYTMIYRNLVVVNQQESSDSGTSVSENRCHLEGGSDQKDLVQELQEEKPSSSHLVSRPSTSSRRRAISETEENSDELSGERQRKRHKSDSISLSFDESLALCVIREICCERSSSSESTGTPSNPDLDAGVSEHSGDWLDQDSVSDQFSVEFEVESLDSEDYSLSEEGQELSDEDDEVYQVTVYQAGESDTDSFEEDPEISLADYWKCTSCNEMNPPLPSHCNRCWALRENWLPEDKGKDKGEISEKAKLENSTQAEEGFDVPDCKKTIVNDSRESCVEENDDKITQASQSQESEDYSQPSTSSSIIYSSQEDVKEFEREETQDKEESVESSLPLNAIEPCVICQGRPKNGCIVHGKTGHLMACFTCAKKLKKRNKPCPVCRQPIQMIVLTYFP

CC1C2C=CC3(C)C1(C)CCC31C(=O)O[C@H](O)[C@@H]21 (some centres not stated)
inactive: all assays above
